Data: patent publication US20230374035A1, “RAS INHIBITORS” (Revolution Medicines, Inc., priority 2019, published 2023)
Read-outs that look alike come from different tables or passages of the source.

What was measured:
KRAS G13D = KRAS G13D (Homo sapiens, UniProt P01116+P62937, G13D); experiment: Disruption of BRAF RBD interaction with K-Ras (FRET / MOA assay); format: biochemical
Protocol: (§1) Compound is present in plate wells as a 10-point 3-fold dilution series starting at a final concentration of 30 μM. […] Compounds that facilitate disruption of a Ras:RAF complex are identified as those eliciting a decrease in the TR-FRET ratio relative to DMSO control wells.
(§2) Note—The following protocol describes a procedure for monitoring disruption of K-Ras G12C (GMP-PNP) binding to BRAF^RBD by a compound of the invention. This protocol may also be executed substituting other Ras proteins or nucleotides.
(§3) The purpose of this biochemical assay was to measure the ability of test compounds to facilitate ternary complex formation between a nucleotide-loaded K-Ras isoform and Cyclophilin A; the resulting ternary complex disrupts binding to a BRAF^RBD construct, inhibiting K-Ras signaling through a RAF effector. Data is reported as IC50 values.
(§4) Compound was present in plate wells as a 10-point 3-fold dilution series starting at a final concentration of 30 μM. […] Compounds that facilitate disruption of a K-Ras:RAF complex were identified as those eliciting a decrease in the TR-FRET ratio relative to DMSO control wells.

KRAS G12V = KRAS G12V (Homo sapiens, UniProt P01116+P62937, G12V); experiment: as above; format: biochemical; conditions: read-out: FRET G12V IC50
KRAS G12V, sequence (P01116 1-188 isoform P01116-2 G12V): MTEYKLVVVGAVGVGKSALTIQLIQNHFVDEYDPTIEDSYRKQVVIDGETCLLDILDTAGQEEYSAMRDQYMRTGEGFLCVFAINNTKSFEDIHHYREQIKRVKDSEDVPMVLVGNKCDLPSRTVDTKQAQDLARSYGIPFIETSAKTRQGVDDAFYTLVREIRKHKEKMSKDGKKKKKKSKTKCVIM
KRAS G12V, sequence (P62937 whole entry): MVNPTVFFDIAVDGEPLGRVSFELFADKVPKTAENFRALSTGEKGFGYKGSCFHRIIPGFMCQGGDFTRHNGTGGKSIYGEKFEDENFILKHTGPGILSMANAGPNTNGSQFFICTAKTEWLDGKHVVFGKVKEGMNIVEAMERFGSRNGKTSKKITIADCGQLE
Protocol: as §1, §2, §3, §4

KRAS G12D = KRAS G12D (Homo sapiens, UniProt P01116+P62937, G12D); experiment: as above; format: biochemical
KRAS G12D, sequence (P01116 1-188 isoform P01116-2 G12D): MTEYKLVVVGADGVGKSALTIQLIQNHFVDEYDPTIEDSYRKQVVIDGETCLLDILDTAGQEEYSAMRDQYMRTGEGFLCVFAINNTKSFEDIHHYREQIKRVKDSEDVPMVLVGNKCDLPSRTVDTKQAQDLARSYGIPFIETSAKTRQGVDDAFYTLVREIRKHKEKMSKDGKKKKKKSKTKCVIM
KRAS G12D, sequence (P62937 whole entry): as the sequence (P62937 whole entry) above
Protocol: as §1, §2, §3, §4

KRAS G12C = KRAS G12C (Homo sapiens, UniProt P01116+P62937, G12C); experiment: as above; format: biochemical
KRAS G12C, sequence (P01116 1-188 isoform P01116-2 G12C): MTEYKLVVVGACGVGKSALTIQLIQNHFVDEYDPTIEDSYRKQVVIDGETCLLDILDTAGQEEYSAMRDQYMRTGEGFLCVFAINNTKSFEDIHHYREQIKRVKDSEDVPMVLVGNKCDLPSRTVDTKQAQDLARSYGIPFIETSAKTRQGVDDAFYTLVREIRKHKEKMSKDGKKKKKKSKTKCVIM
KRAS G12C, sequence (P62937 whole entry): as the sequence (P62937 whole entry) above
Protocol: as §1, §2, §3, §4

KRAS G13C = KRAS G13C (Homo sapiens, UniProt P01116+P62937, G13C); experiment: as above; format: biochemical
KRAS G13C, sequence (P01116 1-188 isoform P01116-2 G13C): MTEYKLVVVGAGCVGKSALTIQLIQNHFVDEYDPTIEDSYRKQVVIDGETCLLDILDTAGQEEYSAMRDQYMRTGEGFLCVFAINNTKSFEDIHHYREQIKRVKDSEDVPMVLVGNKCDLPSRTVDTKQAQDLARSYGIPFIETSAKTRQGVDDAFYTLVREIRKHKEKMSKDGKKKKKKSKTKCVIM
KRAS G13C, sequence (P62937 whole entry): as the sequence (P62937 whole entry) above
Protocol: as §1, §2, §3, §4

[1] = system: NCI-H358 cells (K-Ras G12C); experiment: Potency assay: pERK; format: cell-based; conditions: Homo sapiens
Protocol: The purpose of this assay is to measure the ability of test compounds to inhibit K-Ras in cells. […] This procedure measures a decrease in cellular pERK in response to test compounds. The procedure described below in NCI-H358 cells is applicable to K-Ras G12C.
NCI-H358 cells were grown and maintained using media and procedures recommended by the ATCC. On the day prior to compound addition, cells were plated in 384-well cell culture plates (40 μl/well) and grown overnight in a 37° C., 5% CO2 incubator. Test compounds were prepared in 10, 3-fold dilutions in DMSO, with a high concentration of 10 mM. On day of assay, 40 nl of test compound was added to each well of cell culture plate using an Echo550 liquid handler (LabCyte®). Concentrations of test compound were tested in duplicate. […]
In some experiments, cellular pERK level was determined using the AlphaLISA SureFire Ultra p-ERK1/2 Assay Kit (PerkinElmer). […] Signal was read on an Envision plate reader (PerkinElmer) using standard AlphaLISA settings. […] Signal was plotted vs. the decadal logarithm of compound concentration, and IC50 was determined by fitting a 4-parameter sigmoidal concentration response model.
In other experiments, cellular pERK was determined by In-Cell Western. […] Signal was plotted vs. the decadal logarithm of compound concentration, and IC50 was determined by fitting a 4-parameter sigmoidal concentration response model.

Capan-1 (K-Ras G12V) = experiment: Potency assay: pERK; format: cell-based; conditions: Homo sapiens
AsPC-1 (K-Ras G12D) = experiment: Potency assay: pERK; format: cell-based; conditions: Homo sapiens, ASPC1
KRAS Q61H = KRAS Q61H (Homo sapiens, UniProt P01116+P62937, Q61H); experiment: Disruption of BRAF RBD interaction with K-Ras (FRET / MOA assay); format: biochemical; conditions: read-out: KRAS Q61H FRET data IC50
KRAS Q61H, sequence (P01116 1-188 isoform P01116-2 Q61H): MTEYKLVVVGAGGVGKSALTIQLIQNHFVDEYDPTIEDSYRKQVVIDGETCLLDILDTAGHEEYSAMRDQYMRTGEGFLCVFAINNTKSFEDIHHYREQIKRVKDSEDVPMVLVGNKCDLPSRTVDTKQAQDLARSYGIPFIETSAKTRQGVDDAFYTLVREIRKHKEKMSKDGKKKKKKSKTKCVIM
KRAS Q61H, sequence (P62937 whole entry): as the sequence (P62937 whole entry) above
Protocol: as §1, §2, §3, §4

KRAS G12S = KRAS G12S (Homo sapiens, UniProt P01116+P62937, G12S); experiment: as above; format: biochemical
KRAS G12S, sequence (P01116 1-188 isoform P01116-2 G12S): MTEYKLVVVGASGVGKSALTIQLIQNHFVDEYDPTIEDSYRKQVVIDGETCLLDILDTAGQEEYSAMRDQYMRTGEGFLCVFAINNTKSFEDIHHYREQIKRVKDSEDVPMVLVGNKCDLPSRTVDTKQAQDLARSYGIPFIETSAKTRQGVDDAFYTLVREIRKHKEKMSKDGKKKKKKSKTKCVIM
KRAS G12S, sequence (P62937 whole entry): as the sequence (P62937 whole entry) above
Protocol: as §1, §2, §3, §4

NRAS Q61R = NRAS Q61R (Homo sapiens, UniProt P01111+P62937, Q61R); experiment: Disruption of BRAF RBD interaction with Ras (FRET / MOA assay); format: biochemical; conditions: read-out: NRAS Q61R FRET data IC50
NRAS Q61R, sequence (P01111 whole entry Q61R): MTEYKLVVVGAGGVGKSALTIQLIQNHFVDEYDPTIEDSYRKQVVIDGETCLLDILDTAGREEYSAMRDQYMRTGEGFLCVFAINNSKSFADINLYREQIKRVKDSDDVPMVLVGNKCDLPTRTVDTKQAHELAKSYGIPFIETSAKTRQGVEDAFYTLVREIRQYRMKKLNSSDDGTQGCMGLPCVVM
NRAS Q61R, sequence (P62937 whole entry): as the sequence (P62937 whole entry) above
Procedure, shortened: (§5)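 Compounds were titrated in 10 points (3-fold, starting at 30 μM final) and assessed for promoting a Ras–Cyclophilin A ternary complex that blocks BRAF^RBD binding.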

NRAS G12C = NRAS G12C (Homo sapiens, UniProt P01111+P62937, G12C); experiment: as above; format: biochemical
NRAS G12C, sequence (P01111 whole entry G12C): as the sequence (P01111 whole entry Q61R) above, with G12C, R61Q counted along it
NRAS G12C, sequence (P62937 whole entry): as the sequence (P62937 whole entry) above
Procedure, shortened: as §5

NRAS WT = NRAS WT (Homo sapiens, UniProt P01111+P62937); experiment: as above; format: biochemical; conditions: read-out: NRAS WT FRET data IC50
NRAS WT, sequence (P01111 whole entry): as the sequence (P01111 whole entry Q61R) above, with R61Q counted along it
NRAS WT, sequence (P62937 whole entry): as the sequence (P62937 whole entry) above
Procedure, shortened: as §5

NRAS Q61K = NRAS Q61K (Homo sapiens, UniProt P01111+P62937, Q61K); experiment: as above; format: biochemical; conditions: read-out: NRAS Q61K FRET data IC50
NRAS Q61K, sequence (P01111 whole entry Q61K): as the sequence (P01111 whole entry Q61R) above, with R61K counted along it
NRAS Q61K, sequence (P62937 whole entry): as the sequence (P62937 whole entry) above
Procedure, shortened: as §5

NCI-H358 (K-Ras G12C) = experiment: CellTiter-Glo Cell Viability Assay; format: cell-based; conditions: Homo sapiens, NCI-H358, 120 h; H358, 5-day treatment

KRAS G13D, sequence (P01116 1-188 isoform P01116-2 G13D): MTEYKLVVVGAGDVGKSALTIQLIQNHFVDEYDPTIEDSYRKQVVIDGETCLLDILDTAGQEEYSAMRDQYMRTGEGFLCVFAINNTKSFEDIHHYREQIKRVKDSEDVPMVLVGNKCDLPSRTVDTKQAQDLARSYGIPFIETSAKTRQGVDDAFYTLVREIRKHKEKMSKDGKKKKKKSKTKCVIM
KRAS G13D, sequence (P62937 whole entry): as the sequence (P62937 whole entry) above

SMILES | IC50 (KRAS G13D) [nM] | IC50 (KRAS G12V) [µM] | IC50 (KRAS G12D) [nM] | IC50 (KRAS G12C; read-out: FRET G12C IC50) [nM] | IC50 (KRAS G13C; read-out: FRET G13C IC50) [nM] | EC50 [1] [nM] | EC50 (Capan-1 (K-Ras G12V)) [nM] | EC50 (AsPC-1 (K-Ras G12D)) [nM] | IC50 (KRAS Q61H) [nM] | IC50 (KRAS G12S) [nM] | IC50 (KRAS G12C; read-out: KRAS G12C FRET data IC50) [nM] | IC50 (KRAS G13C; read-out: KRAS G13C FRET data IC50) [nM] | IC50 (NRAS Q61R) [nM] | IC50 (NRAS G12C) [nM] | IC50 (NRAS WT) [nM] | IC50 (NRAS Q61K) [nM] | IC50 (NCI-H358 (K-Ras G12C)) [nM]
CCn1c(-c2cnccc2COC)c2c3cc(ccc31)-c1cc(O)cc(c1)C[C@H](NC(=O)[C@H](C(C)C)N(C)C(=O)OC1CN(C)C1)C(=O)N1CCC[C@H](N1)C(=O)OCC(C)(C)C2 [Compound A74] | 212 | 3.67 | 228 | 450 | 91 | 334 | 413 | 468 | – | – | – | – | – | – | – | – | –
CCn1c(-c2cccnc2[C@H](C)OC)c2c3cc(ccc31)-c1cc(O)cc(c1)C[C@H](NC(=O)[C@H](C(C)C)N(C)C(=O)[C@@H]1CCN(C(=O)OC)[C@@H]1c1ccccc1)C(=O)N1CCC[C@H](N1)C(=O)OCC(C)(C)C2 (atropisomer, axis not shown) [Compound A501] | – | – | – | – | – | – | – | – | < 10 | < 10 | < 10 | < 10 | 10 to 100 | < 10 | < 10 | 10 to 100 | < 10
